In paper PMC4935531 (Journal of Acquired Immune Deficiency Syndromes (1999), 2016):
Where two headings read alike, the source gives them in different places. Blank lines part the entries; values can stand above or below the molecule they belong to.

Key:
[1] = cited from earlier work
OCT1 = conditions: at 10 μM; cited from earlier work
OCT2 [2] = conditions: cited from earlier work
Caco-2 cell monolayers = test: Cellular uptake of [14C]metformin in Caco-2 cell monolayers; assay type: in vitro ADME; conditions: dolutegravir 0.3-100 µM
human PMAT = target: T1, human PMAT (Homo sapiens, UniProt Q7RTT9); test: Inhibition of probe substrate uptake by PMAT in transfected MDCK-II cells; assay type: in vitro ADME; conditions: dolutegravir ≤100 μM; 10 µM [14C]metformin
T1 sequence (Q7RTT9 1-530): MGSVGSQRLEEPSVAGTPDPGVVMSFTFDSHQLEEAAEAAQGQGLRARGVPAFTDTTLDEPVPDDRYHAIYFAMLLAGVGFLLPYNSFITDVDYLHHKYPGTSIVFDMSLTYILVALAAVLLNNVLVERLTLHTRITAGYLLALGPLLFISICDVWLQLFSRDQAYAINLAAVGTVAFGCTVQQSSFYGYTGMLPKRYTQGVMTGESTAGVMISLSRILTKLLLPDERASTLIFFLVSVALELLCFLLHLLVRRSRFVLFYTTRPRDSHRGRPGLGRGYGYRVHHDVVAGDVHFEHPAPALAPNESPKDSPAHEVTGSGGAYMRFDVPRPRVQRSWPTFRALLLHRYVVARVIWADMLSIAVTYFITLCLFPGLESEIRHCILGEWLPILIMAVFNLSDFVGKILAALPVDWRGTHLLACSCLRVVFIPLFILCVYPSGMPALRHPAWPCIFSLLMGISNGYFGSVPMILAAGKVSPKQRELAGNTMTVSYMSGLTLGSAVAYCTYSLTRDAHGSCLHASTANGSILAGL

OCT2 [3] = conditions: cited from earlier work; remark: listed apart in the source
human OCT3 = target: T2, human OCT3 (Homo sapiens, UniProt O75751); test: Inhibition of probe substrate uptake by OCT3 in transfected MDCK-II cells; assay type: in vitro ADME; conditions: dolutegravir ≤10 μM; 10 µM [14C]metformin
T2 sequence (O75751 1-556): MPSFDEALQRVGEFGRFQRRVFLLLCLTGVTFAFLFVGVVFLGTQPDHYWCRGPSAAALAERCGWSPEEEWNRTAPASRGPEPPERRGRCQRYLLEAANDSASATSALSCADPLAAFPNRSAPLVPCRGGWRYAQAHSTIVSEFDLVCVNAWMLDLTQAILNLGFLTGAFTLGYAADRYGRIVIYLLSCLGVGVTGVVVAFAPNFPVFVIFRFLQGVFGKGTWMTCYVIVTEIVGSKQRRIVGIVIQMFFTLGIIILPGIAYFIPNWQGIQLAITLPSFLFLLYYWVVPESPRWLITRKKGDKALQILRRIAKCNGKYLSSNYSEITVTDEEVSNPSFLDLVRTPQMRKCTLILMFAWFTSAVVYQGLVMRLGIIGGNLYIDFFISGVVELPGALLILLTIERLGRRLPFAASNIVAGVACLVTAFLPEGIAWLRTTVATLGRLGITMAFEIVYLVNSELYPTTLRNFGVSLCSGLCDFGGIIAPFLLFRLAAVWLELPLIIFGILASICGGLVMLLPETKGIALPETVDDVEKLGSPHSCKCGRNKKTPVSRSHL

[4] = Safety monitoring: drug-related adverse events in healthy subjects; assay type: in vivo, human; conditions: metformin 500 mg q12h alone or with dolutegravir 50 mg q24h or q12h
[5] = assay type: in vivo, human; conditions: for Metformin t(1/2) with vs without co-administration of dolutegravir: dolutegravir 50 mg q24h or q12h
[6] = co-administration of cimetidine

SMILES: CN/C(=N/CCSCc1nc[nH]c1C)NC#N [Cimetidine]
- Increase in metformin AUC [1, 6]: 40%
- Increase in metformin peak concentration [1, 6]: 60%

- Effect on cellular uptake of metformin in the Caco-2 intestinal cell line (Caco-2 cell monolayers): unaffected
- Inhibition of [14C]metformin uptake by PMAT (human PMAT): no inhibition
- Inhibition of [14C]metformin transport by OCT3 (human OCT3): no inhibition
SMILES: C[C@@H]1CCO[C@H]2Cn3cc(C(=O)NCc4ccc(F)cc4F)c(=O)c(O)c3C(=O)N12 [Dolutegravir]
- Inhibition of OCT1 (OCT1): 22%
- IC50 (OCT2 [2]; read-out: IC50 for OCT2): 1900 nM
- IC50 (OCT2 [2]; read-out: OCT2 inhibitory potency, tetraethylammonium as the substrate): 66 nM
- Dolutegravir free fraction (OCT2 [3]): ≥ 1.1%
- Cmax (OCT2 [3]; read-out: Dolutegravir Cmax, twice daily dosing): 13 µM

- Decrease in metformin CL/F ([5]; co-administration of dolutegravir 50 mg q12h): 59%
- Decrease in metformin CL/F ([5]; co-administration of dolutegravir 50 mg q24h): 44%
- Metformin t(1/2) with vs without co-administration of dolutegravir [5]: unchanged
- Metformin t(1/2) with vs without co-administration of dolutegravir ([5]; listed as metformin): similar
SMILES: CN(C)C(=N)N=C(N)N [Metformin]
- Fraction of drug excreted unchanged in the urine ([1]; within 24 hours, oral and intravenous administration): 90%
- Tolerability [4]: well tolerated
